Data on 9 compounds can be found in ChEMBL document CHEMBL5543160, “Psychoplastogenic DYRK1A Inhibitors with Therapeutic Effects Relevant to Alzheimer's Disease” (J Med Chem, 2024).

The test system of series [1] is Cortical neurone. The experiment in a line: Psychoplastogenic effect in Sprague-Dawley rat cortical neuron assessed as increase in dendritic spine density at 10 uM incubated for 24 hrs by spinogenesis based confocal microscopic analysis. It counts as functional, cell-based.
The target of series [2] is Casein kinase I (Homo sapiens) (UniProt Q9HCP0+P78368+P48730+P49674+P48729). The experiment in a line: Inhibition of CK1 (unknown origin) at 10 uM by DiscoverX KINOMEscan assay. It counts as protein assay.
In series [3] the target is Microtubule-associated protein tau (Rattus norvegicus) (UniProt P19332). The experiment in a line: Inhibition of okadaic acid-induced Tau hyperphosphorylation Ser202/Thr205 residues in Sprague-Dawley rat cortical neuron at 1 to 50 uM preincubated with compound for 24 hrs followed by okadaic acid addition and measured after 1 hrs by fluorescence based immunohistochemistry analysis. Particulars: dose 1-50 µM. It counts as cell-based.

Series [4] deals with Phosphatidylinositol 4,5-bisphosphate 3-kinase catalytic subunit gamma isoform (Homo sapiens) (UniProt P48736). Put plainly: Inhibition of PIK3CG (unknown origin) at 10 uM by DiscoverX KINOMEscan assay.
The species entered for another series is Homo sapiens. Put plainly: Inhibition of CAMK (unknown origin) at 10 uM by DiscoverX KINOMEscan assay.
The target of series [5] is Cyclin-dependent kinase 7 (Homo sapiens) (UniProt P50613). The experiment in a line: Inhibition of CDK7 (unknown origin) at 10 uM by DiscoverX KINOMEscan assay.
Series [6] can be described thus: Toxicity in C57BL/6J mouse assessed as effect on locomotion upto 30 mg/kg, ip measured for 10 mins. It is filed as organism-based. The following applies: in vivo.
Series [7] has as its target Dual specificity tyrosine-phosphorylation-regulated kinase 1A (Homo sapiens, UniProt Q13627).
Series [8] concerns Cortical neurone. Put plainly: Induction of neurite outgrowth in Wistar rat Primary cortical neurons assessed as increase in neurite length incubated for 72 hrs by imaging analysis. It counts as functional, cell-based. Particulars: dose 0.3-10 µM.
In series [9] the target is Microtubule-associated protein tau (Rattus norvegicus) (UniProt P19332). The experiment in a line: Inhibition of okadaic acid-induced Tau hyperphosphorylation Ser202/Thr205 residues in Sprague-Dawley rat cortical neuron at 50 uM preincubated with compound for 24 hrs followed by okadaic acid addition and measured after 1 hrs by fluorescence based immunohistochemistry analysis. It counts as cell-based.

Series [10] is described as follows: Toxicity in C57BL/6J mouse assessed as induction of head-twitch response upto 30 mg/kg, ip measured for 10 mins. The following applies: in vivo. It counts as organism-based.
The test system of another series is Mus musculus. Put plainly: Antipsychotic activity in C57BL/6J mouse assessed as reduction in 5-MeO-DMT-induced head-twitch response at 30 mg/kg, ip pretreated with compound for 10 mins followed by 5-MeO-DMT addition and measured after 20 mins. It counts as functional, organism-based. Particulars: time 30.0 min.
Series [11] deals with Cortical neurone. Put plainly: Induction of neurite outgrowth in Wistar rat Primary cortical neurons assessed as increase in neurite branching incubated for 72 hrs by imaging analysis. It is filed as functional, cell-based. Particulars: dose 0.3-10 µM.
Series [12] concerns the target 5-hydroxytryptamine receptor 2A (Homo sapiens) (UniProt P28223). The experiment in a line: Antagonist activity at 5-HT2AR (unknown origin) in human PSYLI2 cells assessed as decrease in fluorescence at 10 uM pretreated with 5-HT for 10 mins followed by compound addition and measured after 5 mins by PsychLight2 assay. It counts as functional, cell-based. Particulars: PSYLI2 cell, filed as antagonist.

For series [13] the target is unchanged. Put plainly: Agonist activity at 5-HT2AR (unknown origin) in human PSYLI2 cells assessed as increase in biosensor activation at 10 uM incubated for 5 mins by PsychLight2 assay. It is filed as functional, cell-based. Particulars: PSYLI2 cell.

For orientation: pIC50 means the IC50 on a negative log10 scale, so that one unit is a factor of ten. Read a low pIC50 as a large IC50.

pIC50: −log10 of the molar value. Activity calls are given as the source filed them. No cut-off for these calls is given here.

Chain of Microtubule-associated protein tau (Rattus norvegicus) (P19332 whole entry): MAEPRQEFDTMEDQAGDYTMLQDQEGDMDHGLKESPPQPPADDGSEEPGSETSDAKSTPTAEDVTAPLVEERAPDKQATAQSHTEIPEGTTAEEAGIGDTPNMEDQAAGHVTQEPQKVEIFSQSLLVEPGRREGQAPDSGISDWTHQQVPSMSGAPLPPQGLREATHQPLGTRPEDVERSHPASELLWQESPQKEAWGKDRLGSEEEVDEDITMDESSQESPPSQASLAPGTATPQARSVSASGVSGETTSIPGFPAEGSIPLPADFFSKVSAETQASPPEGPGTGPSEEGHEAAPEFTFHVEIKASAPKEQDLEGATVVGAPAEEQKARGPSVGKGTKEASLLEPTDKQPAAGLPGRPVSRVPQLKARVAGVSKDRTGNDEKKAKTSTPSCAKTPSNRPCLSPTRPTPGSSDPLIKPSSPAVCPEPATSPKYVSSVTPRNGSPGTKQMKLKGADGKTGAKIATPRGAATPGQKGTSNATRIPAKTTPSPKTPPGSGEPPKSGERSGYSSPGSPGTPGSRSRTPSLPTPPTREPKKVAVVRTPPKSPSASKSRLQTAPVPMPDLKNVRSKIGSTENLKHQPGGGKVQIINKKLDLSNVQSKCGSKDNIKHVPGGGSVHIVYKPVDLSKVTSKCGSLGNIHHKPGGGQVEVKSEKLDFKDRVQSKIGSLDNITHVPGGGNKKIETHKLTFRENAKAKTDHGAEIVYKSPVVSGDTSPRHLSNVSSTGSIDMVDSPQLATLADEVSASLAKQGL
Chain of 5-hydroxytryptamine receptor 2A (Homo sapiens) (P28223 whole entry): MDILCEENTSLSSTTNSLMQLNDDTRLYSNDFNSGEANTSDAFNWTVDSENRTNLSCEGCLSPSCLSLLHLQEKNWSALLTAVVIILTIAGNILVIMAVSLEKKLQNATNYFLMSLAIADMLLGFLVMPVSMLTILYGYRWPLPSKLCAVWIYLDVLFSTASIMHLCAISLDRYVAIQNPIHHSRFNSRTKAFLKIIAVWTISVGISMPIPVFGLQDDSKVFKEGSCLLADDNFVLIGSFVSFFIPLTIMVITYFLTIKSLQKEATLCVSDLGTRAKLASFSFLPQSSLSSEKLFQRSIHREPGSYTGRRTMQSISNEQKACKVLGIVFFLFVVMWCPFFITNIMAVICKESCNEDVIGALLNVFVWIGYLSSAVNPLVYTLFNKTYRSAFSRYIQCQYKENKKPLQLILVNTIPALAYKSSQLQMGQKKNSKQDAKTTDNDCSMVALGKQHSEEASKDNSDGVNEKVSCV
Chain of Phosphatidylinositol 4,5-bisphosphate 3-kinase catalytic subunit gamma isoform (Homo sapiens) (P48736 whole entry, looked up, canonical isoform): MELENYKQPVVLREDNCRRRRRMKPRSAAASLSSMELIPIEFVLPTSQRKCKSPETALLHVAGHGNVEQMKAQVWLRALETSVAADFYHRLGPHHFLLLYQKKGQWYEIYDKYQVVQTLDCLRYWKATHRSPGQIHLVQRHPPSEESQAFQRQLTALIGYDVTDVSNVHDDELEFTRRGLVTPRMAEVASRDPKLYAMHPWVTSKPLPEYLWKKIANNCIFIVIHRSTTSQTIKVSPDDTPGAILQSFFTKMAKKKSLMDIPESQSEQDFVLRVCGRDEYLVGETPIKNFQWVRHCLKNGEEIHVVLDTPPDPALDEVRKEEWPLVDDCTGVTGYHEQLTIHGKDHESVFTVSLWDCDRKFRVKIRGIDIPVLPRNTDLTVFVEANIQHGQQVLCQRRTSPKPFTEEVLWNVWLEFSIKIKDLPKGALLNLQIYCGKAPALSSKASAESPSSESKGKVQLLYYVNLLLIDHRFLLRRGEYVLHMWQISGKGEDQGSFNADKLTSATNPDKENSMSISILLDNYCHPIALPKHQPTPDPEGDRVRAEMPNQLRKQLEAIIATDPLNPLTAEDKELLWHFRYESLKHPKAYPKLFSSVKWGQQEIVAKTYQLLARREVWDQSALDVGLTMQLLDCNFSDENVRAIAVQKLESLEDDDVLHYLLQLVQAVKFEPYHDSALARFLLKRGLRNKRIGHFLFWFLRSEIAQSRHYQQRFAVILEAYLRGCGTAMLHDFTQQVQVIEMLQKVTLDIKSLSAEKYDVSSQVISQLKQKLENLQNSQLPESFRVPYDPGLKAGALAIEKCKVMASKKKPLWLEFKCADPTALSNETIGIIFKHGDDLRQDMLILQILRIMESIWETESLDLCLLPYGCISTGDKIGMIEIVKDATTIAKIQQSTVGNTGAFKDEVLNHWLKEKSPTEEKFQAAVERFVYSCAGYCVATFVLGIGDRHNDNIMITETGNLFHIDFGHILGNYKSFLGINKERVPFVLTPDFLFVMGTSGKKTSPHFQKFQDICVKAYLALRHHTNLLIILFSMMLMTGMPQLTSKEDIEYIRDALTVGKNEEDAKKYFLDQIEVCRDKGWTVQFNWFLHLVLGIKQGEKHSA
Chain of Cyclin-dependent kinase 7 (Homo sapiens) (P50613 whole entry): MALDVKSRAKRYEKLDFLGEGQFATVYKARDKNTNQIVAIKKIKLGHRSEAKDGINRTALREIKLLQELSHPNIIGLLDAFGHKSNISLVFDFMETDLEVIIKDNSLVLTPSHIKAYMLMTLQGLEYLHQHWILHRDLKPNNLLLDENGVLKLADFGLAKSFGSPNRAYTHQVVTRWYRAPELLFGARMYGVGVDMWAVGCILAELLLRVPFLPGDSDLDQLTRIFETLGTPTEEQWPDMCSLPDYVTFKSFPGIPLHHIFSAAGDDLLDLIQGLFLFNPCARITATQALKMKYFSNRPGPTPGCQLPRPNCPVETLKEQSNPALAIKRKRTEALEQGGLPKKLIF

On to `COc1ccc2c(c1)[nH]c1c(C)nccc12`, for which the result in the series with Cortical neurone [1] was inactive. Further, the inhibition entry (in series [2]; in [3]; in [4]; in the series filed under Homo sapiens; in series [5]) was “Active” in each case.
With `COc1ccc2c3ccnc(C)c3n(CCN(C)C)c2c1.O=C(O)/C=C/C(=O)O`, the result with Cortical neurone [1] and in the series on Mus musculus was Active. In addition, the Activity entry in series [6] was “Non-Toxic”; with Cortical neurone [8] it was “Dose-Dependent Effect”; in [10], “Non-Toxic”; in the series with Cortical neurone [11] it was “Dose-Dependent Effect”. In series [7], this compound had a pIC50 of 6.68. The inhibition result in series [9] is “Active”.
In the case of `CC(=O)/C=C1\Sc2ccccc2N1CCN(C)C`, the result in series [12] was Active. Besides, the result in series [13] was inactive.
With `NCCc1c[nH]c2ccc(O)cc12`, the result in series [13] (filed as agonist) was Active.
Regarding `Cc1nccc2c3ccccc3n(CCN(C)C)c12`, the pIC50 in [7] was under 5.00. Moreover, the result in series [12] was Active. For the same compound, the outcome in series [13] was inactive.
Regarding `COc1ccc2c(c1)N(CCN(C)C)/C(=C/C(C)=O)S2`, in series [7], the pIC50 was 6.25. In addition, the inhibition entry in [3] is “inactive”. The Activity result with Cortical neurone [8] and in the series with Cortical neurone [11] was “Dose-Dependent Effect” each time.
On to `CN(C)CCc1c[nH]c2ccccc12`, for which the outcome in the series on Cortical neurone [1] was Active. In addition, in series [3], the inhibition result was “inactive”.
`COc1ccc2c(c1)c1ccnc(C)c1n2CCN(C)C` had a pIC50 in series [7] of under 5.00. The outcome in series [12] was Active. Also, in [13], the result was inactive.
Turning to `COc1ccc2c(c1)S/C(=C\C(C)=O)N2CCN(C)C`, the outcome in [12] was Active. Moreover, the outcome in series [13] was inactive.
